# Measured values: patent US20160039825A1 (BIOGEN MA INC., priority 2013, published 2016)
# Target: T1, Human ATX protein (Homo sapiens, UniProt Q13822)
# T1 construct: made in house
# Assay: Autotaxin (ATX) assay, FRET with FS-3 substrate
# Type: biochemical
# Details: upper bound bins (no greater than 100, 250 or 500 nM); FS-3 2 μM, ATX 1.0 μg/mL
# In short: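 In-house human ATX (1.0 μg/mL final) was preincubated with compound for 30 min at room temperature in Tris buffer pH 7.4 with NaCl, KCl, CaCl2, MgCl2 and 1 mg/mL fatty acid-free BSA. FS-3 (2 μM final) was added and the plate shaken 2 h at room temperature in the dark. Fluorescence was read at ex 485/em 538 nm.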
row,IC50,Structure (SMILES)
1,≤ 100 nM,CC1(C)CNCCN1C(=O)c1cc2n(n1)CCN(C(=O)OCc1cc(Cl)cc(C(F)(F)F)c1)C2 [Example 432]
2,≤ 100 nM,CC1CN(C(=O)c2cc3n(n2)CCN(C(=O)OCc2cc(C(F)(F)F)cc(C(F)(F)F)c2)C3)CC(C)N1 (stereo not drawn) [Example 433]
3,≤ 100 nM,O=C(OCc1cc(Cl)cc(C(F)(F)F)c1)N1CCn2nc(C(=O)N3CCNCC3)cc2C1 [Example 434]
4,≤ 100 nM,O=C(OCc1cc(C(F)(F)F)cc(C(F)(F)F)c1)N1CCn2nc(C(=O)N3CCNCC3)cc2C1 [Example 435]
5,≤ 100 nM,CC1(C)CN(C(=O)c2cc3n(n2)CCN(C(=O)OCc2cc(C(F)(F)F)cc(C(F)(F)F)c2)C3)CCN1 [Example 436]
6,≤ 100 nM,CNC1CN(C(=O)c2cc3n(n2)CCN(C(=O)OCc2cc(C(F)(F)F)cc(C(F)(F)F)c2)C3)C1 [Example 438]
7,≤ 100 nM,CC1CN(C(=O)c2cc3n(n2)CCN(C(=O)OCc2cc(C(F)(F)F)cc(C(F)(F)F)c2)C3)CCN1 (stereo not drawn) [Example 439]
8,≤ 100 nM,CC1(C)CNCCN1C(=O)c1cc2n(n1)CCN(C(=O)OCc1cc(C(F)(F)F)cc(C(F)(F)F)c1)C2 [Example 441]
9,≤ 100 nM,O=C(OCc1cc(Cl)cc(C(F)(F)F)c1)N1CCn2nc(C(=O)N3CC4CNCC4C3)cc2C1 (stereo not drawn) [Example 442]
10,≤ 100 nM,O=C(OCc1cc(C(F)(F)F)cc(C(F)(F)F)c1)N1CCn2nc(C3CCNCC3)cc2C1 [Example 443]
11,≤ 100 nM,O=C(OCc1cc(C(F)(F)F)cc(C(F)(F)F)c1)N1CCn2nc(C3=CCCNC3)cc2C1 [Example 444]
12,≤ 250 nM,CC(c1cc2n(n1)CCCN(C(=O)OCc1cc(Cl)cc(Cl)c1)C2)N1CCCCC1 (stereo not drawn) [Example 446]
13,≤ 100 nM,CC(c1cc2n(n1)CCN(C(=O)OCc1cc(C(F)(F)F)cc(C(F)(F)F)c1)C2)N1CCN(C(=O)OC(C)(C)C)CC1 (stereo not drawn) [Example 448]
14,≤ 500 nM,CC(c1cc2n(n1)CCCN(C(=O)OCc1cc(Cl)cc(Cl)c1)C2)N1CCCC1 (stereo not drawn) [Example 454]
15,≤ 250 nM,CC(c1cc2n(n1)CCN(C(=O)OCc1cc(C(F)(F)F)cc(C(F)(F)F)c1)C2)N1CCC(C(=O)O)CC1 (stereo not drawn) [Example 456]
16,≤ 250 nM,CC(c1cc2n(n1)CCN(C(=O)OCc1cc(C(F)(F)F)cc(C(F)(F)F)c1)C2)N1CCC(O)CC1 (stereo not drawn) [Example 457]
17,≤ 100 nM,CC(c1cc2n(n1)CCN(C(=O)OCc1cc(C(F)(F)F)cc(C(F)(F)F)c1)C2)N1CCCCC1 (stereo not drawn) [Example 458]
18,≤ 100 nM,"O=C(NCCO)c1cc2n(n1)CCN(C(=O)OCc1cc(C(F)(F)F)cc(C(F)(F)F)c1)C2 [Example 460, 3,5-bis(trifluoromethyl)benzyl 2-((2-hydroxyethyl)carbamoyl)-6,7-dihydropyrazolo[1,5-a]pyrazine-5(4H)-carboxylate]"
19,≤ 100 nM,CC(C)(C)OC(=O)N1CCN(C(=O)c2cc3n(n2)CCN(C(=O)OCc2cc(C(F)(F)F)cc(C(F)(F)F)c2)C3)C(C)(C)C1 [Example 462]
20,≤ 100 nM,CC1CN(C(=O)OC(C)(C)C)CCN1C(=O)c1cc2n(n1)CCN(C(=O)OCc1cc(C(F)(F)F)cc(C(F)(F)F)c1)C2 (stereo not drawn) [Example 464]
21,≤ 100 nM,CC(C)(C)OC(=O)N1CCN(C(=O)c2cc3n(n2)CCN(C(=O)OCc2cc(C(F)(F)F)cc(C(F)(F)F)c2)C3)CC1(C)C [Example 466]
22,≤ 100 nM,CC1CN(C(=O)c2cc3n(n2)CCN(C(=O)OCc2cc(C(F)(F)F)cc(C(F)(F)F)c2)C3)CCN1C(=O)OC(C)(C)C (stereo not drawn) [Example 467]
23,≤ 100 nM,CC1CN(C(=O)c2cc3n(n2)CCN(C(=O)OCc2cc(C(F)(F)F)cc(C(F)(F)F)c2)C3)CC(C)N1C(=O)OC(C)(C)C (stereo not drawn) [Example 469]
24,≤ 100 nM,CC(C)(C)OC(=O)N1CCN(C(=O)c2cc3n(n2)CCN(C(=O)OCc2cc(Cl)cc(C(F)(F)F)c2)C3)CC1 [Example 471]
25,≤ 100 nM,CC(CO)NC(=O)c1cc2n(n1)CCN(C(=O)OCc1cc(C(F)(F)F)cc(C(F)(F)F)c1)C2 (stereo not drawn) [Example 472]
26,≤ 100 nM,CC(C)(C)OC(=O)N1CCN(C(=O)c2cc3n(n2)CCN(C(=O)OCc2cc(Cl)cc(C(F)(F)F)c2)C3)C(C)(C)C1 [Example 475]
27,≤ 100 nM,CC1CN(C(=O)OC(C)(C)C)CC(C)N1C(=O)c1cc2n(n1)CCN(C(=O)OCc1cc(C(F)(F)F)cc(C(F)(F)F)c1)C2 (stereo not drawn) [Example 476]
28,≤ 100 nM,O=C(OCc1cc(Cl)cc(C(F)(F)F)c1)N1CCn2nc(C(=O)N3CCC(O)CC3)cc2C1 [Example 479]

row,IC50,Structure (SMILES)
1,≤ 250 nM,CN(C)C(=O)c1cc2n(n1)CCN(C(=O)OCc1cc(C(F)(F)F)cc(C(F)(F)F)c1)C2 [Example 480]
2,≤ 100 nM,CCCNC(=O)c1cc2n(n1)CCN(C(=O)OCc1cc(C(F)(F)F)cc(C(F)(F)F)c1)C2 [Example 481]
3,≤ 100 nM,CNC(=O)c1cc2n(n1)CCN(C(=O)OCc1cc(C(F)(F)F)cc(C(F)(F)F)c1)C2 [Example 482]
4,≤ 100 nM,O=C(OCc1cc(C(F)(F)F)cc(C(F)(F)F)c1)N1CCn2nc(C(=O)N3CC(O)C3)cc2C1 [Example 483]
5,≤ 100 nM,O=C(OCc1cc(C(F)(F)F)cc(C(F)(F)F)c1)N1CCn2nc(C(=O)N3CCC3)cc2C1 [Example 485]
6,≤ 100 nM,CC(C)(C)OC(=O)N1CCN(C(=O)c2cc3n(n2)CCN(C(=O)OCc2cc(C(F)(F)F)cc(C(F)(F)F)c2)C3)CC1 [Example 486]
7,≤ 100 nM,CC1CCN(C(=O)c2cc3n(n2)CCN(C(=O)OCc2cc(C(F)(F)F)cc(C(F)(F)F)c2)C3)CC1 [Example 488]
8,≤ 100 nM,CN1CCN(C(=O)c2cc3n(n2)CCN(C(=O)OCc2cc(C(F)(F)F)cc(C(F)(F)F)c2)C3)CC1 [Example 489]
9,≤ 100 nM,O=C(OCc1cc(C(F)(F)F)cc(C(F)(F)F)c1)N1CCn2nc(C(=O)N3CCC(O)CC3)cc2C1 [Example 490]
10,≤ 100 nM,NC(=O)c1cc2n(n1)CCN(C(=O)OCc1cc(C(F)(F)F)cc(C(F)(F)F)c1)C2 [Example 491]
11,≤ 100 nM,O=C(NC1CCCCC1)c1cc2n(n1)CCN(C(=O)OCc1cc(C(F)(F)F)cc(C(F)(F)F)c1)C2 [Example 492]
12,≤ 100 nM,O=C(OCc1cc(C(F)(F)F)cc(C(F)(F)F)c1)N1CCn2nc(C(=O)N3CCCCC3)cc2C1 [Example 493]
13,≤ 100 nM,COC(=O)C1CCN(C(=O)c2cc3n(n2)CCN(C(=O)OCc2cc(C(F)(F)F)cc(C(F)(F)F)c2)C3)CC1 [Example 494]
14,≤ 100 nM,CN1CCN(C(=O)c2cc3n(n2)CCN(C(=O)OCc2cc(Cl)cc(C(F)(F)F)c2)C3)C(C)(C)C1 [Example 495]
15,≤ 100 nM,"O=C(OCc1cc(C(F)(F)F)cc(C(F)(F)F)c1)N1CCn2nc(-c3cccnc3)cc2C1 [Example 496, 3,5-bis(trifluoromethyl)benzyl 2-(pyridin-3-yl)-6,7-dihydropyrazolo[1,5-a]pyrazine-5(4H)-carboxylate]"
16,≤ 100 nM,CC(C)(C)OC(=O)N1CC=C(c2cc3n(n2)CCN(C(=O)OCc2cc(C(F)(F)F)cc(C(F)(F)F)c2)C3)CC1 [Example 497]
17,≤ 100 nM,CC(C)(C)OC(=O)N1CCC=C(c2cc3n(n2)CCN(C(=O)OCc2cc(C(F)(F)F)cc(C(F)(F)F)c2)C3)C1 [Example 498]
18,≤ 100 nM,O=C(OCc1cc(C(F)(F)F)cc(C(F)(F)F)c1)N1CCn2nc(-c3ccncc3)cc2C1 [Example 499]
19,≤ 100 nM,O=C(OCc1cc(C(F)(F)F)cc(C(F)(F)F)c1)N1CCn2nc(-c3cn[nH]c3)cc2C1 [Example 500]
20,≤ 100 nM,O=C(NCC1CC1)c1cc2n(n1)CCCN(C(=O)OCc1cc(C(F)(F)F)cc(C(F)(F)F)c1)C2 [Example 502]
21,≤ 100 nM,O=C(NC1CC1)c1cc2n(n1)CCCN(C(=O)OCc1cc(C(F)(F)F)cc(C(F)(F)F)c1)C2 [Example 503]
22,≤ 100 nM,O=C(NC1CC(O)C1)c1cc2n(n1)CCCN(C(=O)OCc1cc(C(F)(F)F)cc(C(F)(F)F)c1)C2 (stereo not drawn) [Example 504]
23,≤ 100 nM,O=C(NC1COC1)c1cc2n(n1)CCCN(C(=O)OCc1cc(C(F)(F)F)cc(C(F)(F)F)c1)C2 [Example 505]
24,≤ 100 nM,O=C(NC1CCOCC1)c1cc2n(n1)CCCN(C(=O)OCc1cc(C(F)(F)F)cc(C(F)(F)F)c1)C2 [Example 506]
25,≤ 100 nM,"O=C(O)c1nn2c(c1F)CN(C(=O)OCc1cc(C(F)(F)F)cc(C(F)(F)F)c1)CCC2 [Example 507, 5-(((3,5-bis(Trifluoromethyl)benzyl)oxy)carbonyl)-3-fluoro-5,6,7,8-tetrahydro-4H-pyrazolo[1,5-a][1,4]diazepine-2-carboxylic acid]"
26,≤ 100 nM,CC(NC1CC1)c1cc2n(n1)CCCN(C(=O)OCc1cc(C(F)(F)F)cc(C(F)(F)F)c1)C2 (stereo not drawn) [Example 508]
27,≤ 250 nM,CC(NC1COC1)c1cc2n(n1)CCCN(C(=O)OCc1cc(C(F)(F)F)cc(C(F)(F)F)c1)C2 (stereo not drawn) [Example 509]

row,Structure (SMILES),IC50
1,O=C(OCc1cc(C(F)(F)F)cc(C(F)(F)F)c1)N1CCn2nc(C(=O)N3CC4CCC(C3)N4)cc2C1 [Example 437],≤ 100 nM
2,CC(c1cc2n(n1)CCN(C(=O)OCc1cc(C(F)(F)F)cc(C(F)(F)F)c1)C2)N1CC2CCC(C1)N2C(=O)OC(C)(C)C (stereo not drawn) [Example 449],≤ 100 nM
3,CC(c1cc2n(n1)CCN(C(=O)OCc1cc(C(F)(F)F)cc(C(F)(F)F)c1)C2)N1C2CCC1CN(C(=O)OC(C)(C)C)C2 (stereo not drawn) [Example 450],≤ 100 nM
4,CC(c1cc2n(n1)CCCN(C(=O)OCc1cc(Cl)cc(Cl)c1)C2)N1C2CCCC1CCC2 (stereo not drawn) [Example 453],≤ 250 nM
5,CC(C)(C)OC(=O)N1C2CCC1CN(C(=O)c1cc3n(n1)CCN(C(=O)OCc1cc(C(F)(F)F)cc(C(F)(F)F)c1)C3)C2 [Example 470],≤ 100 nM
6,CC(C)(C)OC(=O)N1CC2CCC(C1)N2C(=O)c1cc2n(n1)CCN(C(=O)OCc1cc(C(F)(F)F)cc(C(F)(F)F)c1)C2 [Example 474],≤ 100 nM
7,CC(C)(C)OC(=O)N1C2CCC1CN(C(=O)c1cc3n(n1)CCN(C(=O)OCc1cc(Cl)cc(C(F)(F)F)c1)C3)C2 [Example 478],≤ 100 nM
8,O=C(OCc1cc(C(F)(F)F)cc(C(F)(F)F)c1)N1CCn2nc(C(=O)N3C4CCCC3CCC4)cc2C1 [Example 487],≤ 100 nM
